Test results from publication PMC7914897, “Cytotoxic Potential of a-Azepano- and 3-Amino-3,4-SeCo-Triterpenoids” (International Journal of Molecular Sciences, 2021).
Where two headings read alike, the source gives them in different places.

Legend:
[1] = tested on: NIH 3T3 (non-malignant mouse fibroblasts); test: SRB cytotoxicity assay, 72 h; type: cell-based; conditions: Mus musculus, NIH3T3; NIH 3T3, 72 h, cut-off 30 µM; read-out: EC50
Protocol: The cytotoxicity of compounds 1–20 was evaluated by means of a colorimetric sulforhodamine B (SRB) assay. For all compounds, the EC50 values were determined for the human tumor cell lines A375 (malignant melanoma), HT29 (colorectal carcinoma), MCF-7 (breast carcinoma), A2780 (ovarian carcinoma), FaDu (hypopharyngeal carcinoma), and NIH 3T3 (non-malignant mouse fibroblasts).
In short, exponentially growing cells were seeded into 96-well plates on day 0 at the appropriate cell densities to prevent confluence of the cells during the period of experiment. After 24 h, the cells were treated with serial dilutions of the compounds (0–30 µM) for 72 h. The final concentration of DMSO never exceeded 0.5%, which was non-toxic to the cells. After a 72 h treatment, the supernatant medium from the 96-well plates was discarded, and the cells were fixed with 10% TCA. For a thorough fixation, the plates were allowed to rest at 4 °C. After fixation, the cells were washed in a strip washer. The washing was done four times with water using alternate dispensing and aspiration procedures. The plates were then dyed with 100 µL of 0.4% SRB for about 20 min. After dying, the plates were washed with 1% acetic acid to remove the excess of the dye and allowed to air-dry overnight. Tris base solution (200 µL, 10 mM) was added to each well and absorbance was measured at λ = 570 nm (using a 96 well plate reader, Tecan Spectra, Crailsheim, Germany). The percentages of surviving cells relative to untreated controls were determined.

[2] = tested on: OVCAR-4 (Ovarian cancer); test: NCI-60 screen (SRB, 48 h); type: cell-based; conditions: Homo sapiens; for IC (TGI): OVCAR-4, 48 h; for GI50: read-out: GI50
[3] = tested on: BT-549 (Breast cancer); test: NCI-60 screen (SRB, 48 h); type: cell-based; conditions: Homo sapiens; for GI50: BT-549; for IC (TGI): BT-549, 48 h
[4] = tested on: MDA-MB-468 (Breast cancer); test: cells; conditions: Homo sapiens; for GI50: MDA-MB-468; for IC (TGI): MDA-MB-468, 48 h, read-out: TGI
[5] = tested on: Colon Cancer subpanel; test: NCI-60 screen, subpanel; conditions: Homo sapiens; for IC (TGI): 48 h, read-out: TGI MG_MID; for GI50: read-out: GI50 MG_MID
[6] = tested on: Renal Cancer subpanel; test: NCI-60 screen, subpanel; conditions: Homo sapiens; for IC (TGI): 48 h, read-out: TGI MG_MID; for GI50: read-out: GI50 MG_MID; for CC50: read-out: LC50 MG_MID
[7] = tested on: EKVX (NSC lung cancer); test: NCI-60 screen (SRB, 48 h); conditions: Homo sapiens; for IC (TGI): 48 h, read-out: TGI
[8] = tested on: HOP-62 (NSC lung cancer); test: NCI-60 screen (SRB, 48 h); conditions: Homo sapiens; for GI50: HOP-62; for IC (TGI): HOP-62, 48 h, read-out: TGI
[9] = tested on: NCI-H322M (NSC lung cancer); test: NCI-60 screen (SRB, 48 h); conditions: Homo sapiens; for IC (TGI): 48 h, read-out: TGI
[10] = tested on: HCT-116 (Colon cancer); test: NCI-60 screen (SRB, 48 h); conditions: Homo sapiens; for GI50: HCT-116; for IC (TGI): read-out: TGI
[11] = tested on: UACC-62 (Melanoma); test: NCI-60 screen (SRB, 48 h); conditions: Homo sapiens; for GI50: UACC-62; for IC (TGI): UACC-62, 48 h, read-out: TGI
[12] = tested on: OVCAR-8 (Ovarian cancer); test: NCI-60 screen (SRB, 48 h); conditions: Homo sapiens; for GI50: OVCAR-8; for IC (TGI): OVCAR-8, 48 h, read-out: TGI
[13] = tested on: NCI/ADR-RES (Ovarian cancer); test: NCI-60 screen (SRB, 48 h); conditions: Homo sapiens
[14] = tested on: SK-OV-3 (Ovarian cancer); test: NCI-60 screen (SRB, 48 h); conditions: Homo sapiens; for GI50: SK-OV-3; for IC (TGI): SK-OV-3, 48 h, read-out: TGI; for CC50: SK-OV-3, read-out: LC50
[15] = tested on: 786-0 (Renal cancer); test: NCI-60 screen (SRB, 48 h); conditions: Homo sapiens; for GI50: 786-0; for IC (TGI): 786-0, 48 h, read-out: TGI
[16] = tested on: A498 (Renal cancer); test: NCI-60 screen (SRB, 48 h); conditions: Homo sapiens; for GI50: A498; for IC (TGI): A498, 48 h, read-out: TGI; for CC50: A498, read-out: LC50
[17] = tested on: ACHN (Renal cancer); test: NCI-60 screen (SRB, 48 h); conditions: Homo sapiens; for IC (TGI): 48 h, read-out: TGI
[18] = tested on: SN12C (Renal cancer); test: NCI-60 screen (SRB, 48 h); conditions: for IC (TGI): 48 h, read-out: TGI
[19] = tested on: PC-3 (Prostate cancer); test: NCI-60 screen (SRB, 48 h); conditions: Homo sapiens; for GI50: PC-3; for IC (TGI): PC-3, 48 h, read-out: TGI
[20] = tested on: MDA-MB-31/ATCC (Breast cancer); test: NCI-60 screen (SRB, 48 h); conditions: Homo sapiens
[21] = tested on: panel of approximately 60 cancer cell lines; test: NCI-60 screen (SRB, 48 h), full panel; conditions: for activity at 10 µM / IC (TGI): 48 h; for IC (TGI): read-out: TGI MG_MID60, average over all cell lines
[22] = Homo sapiens, read-out: Mean Growth, %
[23] = Homo sapiens, read-out: Range of Growth, %
[24] = Homo sapiens, read-out: GI50 MG_MID60
[25] = Homo sapiens, read-out: GI50 against all human tumor cell lines

`C=C(C)[C@@H]1CC[C@]2(COS(=O)(=O)c3ccc(C)cc3)CC[C@]3(C)[C@@H](CC[C@@H]4[C@@]5(C)CCCNC(C)(C)[C@@H]5CC[C@]43C)[C@@H]12` [Compound 12] was tested, and the EC50 [1] was 1.94 ± 0.2 µM, the IC (TGI) [2] was 3.38 µM and the GI50 ([2]; OVCAR-4) was 1.86 µM. It also gave a GI50 [3] of 1.84 µM, an IC (TGI) [3] of 3.56 µM and a GI50 [4] of 1.74 µM. For the same compound, the IC (TGI) [4] was 3.33 µM, the IC (TGI) [5] was 3.37 µM and the GI50 [5] was 1.73 µM. It also gave an IC (TGI) [6] of 3.26 µM, a GI50 [6] of 1.76 µM and a CC50 [6] of 5.87 µM. It also gave a GI50 [7] of 1.62 µM, an IC (TGI) [7] of 3.11 µM and a GI50 [8] of 1.65 µM. The IC (TGI) [8] was 3.13 µM, the GI50 [9] was 1.76 µM and the IC (TGI) [9] was 3.16 µM. It also gave a GI50 [10] of 1.79 µM, an IC (TGI) ([10]; HCT-116, 48 h) of 3.33 µM and a GI50 [11] of 2.05 µM. For the same compound, the IC (TGI) [11] was 3.64 µM, the GI50 [12] was 1.91 µM and the IC (TGI) [12] was 3.65 µM. It also gave a GI50 [13] of 1.74 µM, a GI50 [14] of 1.87 µM and an IC (TGI) [14] of 3.3 µM. The CC50 [14] was 5.82 µM, the GI50 [15] was 1.92 µM and the IC (TGI) [15] was 3.59 µM. The GI50 [16] was 1.63 µM, the IC (TGI) [16] was 3.14 µM and the CC50 [16] was 6.04 µM. The GI50 [17] was 1.98 µM, the IC (TGI) [17] was 3.45 µM and the “Growth % of the Most Sensitive Cell Lines” value ([18]; 1 dose 10 µM) was −94.44%. The GI50 ([18]; Homo sapiens) was 1.88 µM, the IC (TGI) ([18]; Homo sapiens) was 3.37 µM and the GI50 [19] was 1.58 µM. The IC (TGI) [19] was 3 µM, the GI50 [20] was 1.88 µM and the “Positive Cytostatic Effect (cell lines with percent growth 0 to 50 / total)” value ([21]; 1 dose 10 µM) was 11/60. The “number of cancer cell lines the compound was active against” value ([21]; 1 dose 10 µM) was 39 cell lines, the activity at 10 µM [21, 22] was -3.21% and the activity at 10 µM [21, 23] was -94.4 to 98.7%. It also gave an IC (TGI) ([21]; Homo sapiens) of 3.43 µM, a GI50 [21, 24] of 1.77 µM and a GI50 [21, 25] of less than 3 µM. For the same compound, the CC50 ([21]; Homo sapiens, read-out: LC50 MG_MID60, average over all cell lines) was 5.84 µM.

`C=C(C)[C@@H]1CCC=C2CC[C@]3(C)[C@H](CC[C@@H]4[C@@]5(C)CCCNC(C)(C)[C@@H]5CC[C@]43C)[C@H]21` [Compound 8] showed an EC50 [1] of 2.41 ± 0.5 µM, an IC (TGI) [2] of 3.39 µM and a GI50 ([2]; OVCAR-4) of 1.86 µM. For the same compound, the CC50 ([2]; OVCAR-4, read-out: LC50 (the source's name)) was 6.17 µM, the GI50 [3] was 1.68 µM and the IC (TGI) [3] was 3.23 µM. For the same compound, the GI50 [4] was 1.78 µM, the IC (TGI) [4] was 3.43 µM and the CC50 ([4]; MDA-MB-468, read-out: LC50) was 6.6 µM. It also gave an IC (TGI) [5] of 3.02 µM, a GI50 [5] of 1.51 µM and a CC50 ([5]; read-out: LC50 MG_MID) of 5.87 µM. It also gave an IC (TGI) [6] of 3.34 µM, a GI50 [6] of 1.79 µM and a CC50 [6] of 6.18 µM. It also gave a GI50 [7] of 1.66 µM, an IC (TGI) [7] of 3.21 µM and a GI50 [8] of 1.82 µM. The IC (TGI) [8] was 3.41 µM, the CC50 ([8]; HOP-62, read-out: LC50) was 6.38 µM and the GI50 [9] was 1.73 µM. For the same compound, the IC (TGI) [9] was 3.14 µM, the CC50 ([9]; read-out: LC50) was 5.7 µM and the GI50 [10] was 1.37 µM. For the same compound, the activity at 10 µM ([10]; HCT-116, 48 h, read-out: Growth % of the Most Sensitive Cell Lines) was -96.2%, the IC (TGI) ([10]; HCT-116, 48 h) was 2.82 µM and the GI50 [11] was 1.73 µM. For the same compound, the IC (TGI) [11] was 3.16 µM, the CC50 ([11]; UACC-62, read-out: LC50) was 5.76 µM and the GI50 [12] was 1.99 µM. For the same compound, the IC (TGI) [12] was 3.94 µM, the CC50 ([12]; OVCAR-8, read-out: LC50) was 7.79 µM and the GI50 [13] was 1.98 µM. It also gave an IC (TGI) ([13]; 48 h, read-out: TGI) of 3.8 µM, a CC50 ([13]; read-out: LC50) of 7.3 µM and a GI50 [14] of 1.81 µM. It also gave an IC (TGI) [14] of 3.37 µM, a CC50 [14] of 6.28 µM and a GI50 [15] of 1.76 µM. The IC (TGI) [15] was 3.51 µM, the GI50 [16] was 2.03 µM and the IC (TGI) [16] was 3.79 µM. The CC50 [16] was 7.08 µM, the GI50 [17] was 1.84 µM and the IC (TGI) [17] was 3.26 µM. It also gave a GI50 ([18]; Homo sapiens) of 1.79 µM, an IC (TGI) ([18]; Homo sapiens) of 3.31 µM and a CC50 ([18]; Homo sapiens, read-out: LC50) of 6.12 µM. For the same compound, the GI50 [19] was 1.65 µM, the IC (TGI) [19] was 3.06 µM and the CC50 ([19]; PC-3, read-out: LC50) was 5.68 µM. The GI50 [20] was 1.81 µM, the IC (TGI) ([20]; 48 h, read-out: TGI) was 3.35 µM and the CC50 ([20]; read-out: LC50) was 6.2 µM. The “Positive Cytostatic Effect (cell lines with percent growth 0 to 50 / total)” value ([21]; 1 dose 10 µM) was 7/60, the “Positive Cytotoxic Effect (cell lines with percent growth < 0 / total)” value ([21]; 1 dose 10 µM) was 49/60 and the “number of cancer cell lines the compound was active against” value ([21]; 1 dose 10 µM) was 55 cell lines. It also gave an activity at 10 µM [21, 22] of -46.7%, an activity at 10 µM [21, 23] of -99.5 to 75.9% and an IC (TGI) ([21]; Homo sapiens) of 3.53 µM. It also gave a GI50 [21, 24] of 1.73 µM, a GI50 [21, 25] of less than 3 µM and a GI50 ([21]; Homo sapiens, read-out: GI50 against the most sensitive cell lines) of 0.2 to 0.94 µM.
